# Like-named read-outs stand apart in the source and are kept apart here.
# Tested on: SSTR2 mutants
# Assay: SSTRs Gi-mediated cAMP inhibition, GloSensor, HEK293, 5 μM forskolin, 15 min room temperature (SSTR2 mutants)
# Assay type: cell-based, human
# Design: Best-fit Bottom, cAMP inhibition / Best-fit Top, cAMP inhibition / Span, cAMP inhibition / Bottom (best-fit value) / Top (best-fit value) / Span (best-fit value) / Span (best-fit) / Bottom (best-fit) / Top (best-fit) / Best-fit Bottom / Best-fit Top / Best-fit Span / Top / Span: scale not given here
# Protocol: The levels of the intracellular 3′, 5′-cyclic AMP (cAMP) were measured by the GloSensor cAMP assay (Promega) as described in the previous studies[28],[41] which has been widely used. The human full-length SSTRs and mutants were cloned into the pcDNA3.1+ vector with a HA signal sequence followed by a Flag tag at the N-terminus. HEK293 cells (ATCC, CRL-1573) were seeded into 6-well microplates at a density of 1.0 × 10^6 cells/well and cultured for 24 h at 37 °C with 5% CO2. Cells were then co-transfected with SSTR wild-type or mutants and GloSensor plasmids. After 24 h of transfection, the cells were dissociated with TrypLE™ Express Enzyme (1X) (Thermo Fisher Scientific) and collected by centrifugation at 500 × g for 5 min. Then the collected cells were suspended in Hank’s balanced salt solution [HBSS (Thermo Fisher Scientific)] supplemented with […] (YEASEN), and then the suspension cells were seeded into 96-well plates with 90 μl/well. After incubating at room temperature for 40 min, 5 μM forskolin and ligands diluted in HBSS were added to each well and the plates were incubated at room temperature for 15 min. […] were measured using the Synergy H1 microplate reader (BioTek) and the data presented are means of at least three independent experiments.
# [1] = cAMP inhibition, SSTR2 F127A-1 (run 1)
# [2] = cAMP inhibition, SSTR2 F127A-2 (run 2)
# [3] = cAMP inhibition, SSTR2 F127A-3 (run 3)
# [4] = cAMP inhibition, SSTR2 F208A-1 (run 1)
# [5] = cAMP inhibition, SSTR2 F208A-2 (run 2)
# [6] = cAMP inhibition, SSTR2 F208A-3 (run 3)
# [7] = cAMP inhibition, SSTR2 I130A-1 (run 1)
# [8] = cAMP inhibition, SSTR2 I130A-2 (run 2)
# [9] = cAMP inhibition, SSTR2 I130A-3 (run 3)
# [10] = cAMP inhibition, SSTR2 Y205A-1 (run 1)
# [11] = cAMP inhibition, SSTR2 Y205A-2 (run 2)
# [12] = cAMP inhibition, SSTR2 Y205A-3 (run 3)
# [13] = cAMP inhibition, SSTR2 T194H, run 1
# [14] = cAMP inhibition, SSTR2 T194H, run 2
# [15] = cAMP inhibition, SSTR2 T194H, run 3
# [16] = cAMP inhibition, SSTR2 T194H, run 4
# [17] = cAMP inhibition, SSTR2 V103N, run 1
# [18] = cAMP inhibition, SSTR2 V103N, run 2
# [19] = cAMP inhibition, SSTR2 V103N, run 3
# [20] = cAMP inhibition, SSTR2 V103N, run 4
smiles,measurement,setting,value
C[C@@H](O)[C@@H]1NC(=O)[C@H](CCCCN)NC(=O)[C@@H](Cc2c[nH]c3ccccc23)NC(=O)[C@H](Cc2ccccc2)NC(=O)[C@@H](NC(=O)[C@H](N)Cc2ccccc2)CSSC[C@@H](C(=O)N[C@H](CO)[C@@H](C)O)NC1=O [octreotide],Top (best-fit value),"W188A-2, run 2",109.9
same,EC50,"W188A-2, run 2, read-out: EC50 (best-fit value)",0.0722 nM
same,Bottom (best-fit value),"W188A-3, run 3",3.856
same,LogEC50 (best-fit value),"W188A-3, run 3",-9.118
same,Span (best-fit value),"W188A-3, run 3",88.75
same,Top (best-fit value),"W188A-3, run 3",92.61
same,EC50,"W188A-3, run 3, read-out: EC50 (best-fit value)",0.762 nM
same,Bottom (best-fit),W269A-1,-8.692
same,LogEC50 (best-fit),W269A-1,-8.978
same,Span (best-fit),W269A-1,108.2
same,Top (best-fit),W269A-1,99.53
same,EC50,"W269A-1, read-out: EC50 (best-fit)",1.05 nM
same,Bottom (best-fit),W269A-2,-48.61
same,LogEC50 (best-fit),W269A-2,-9.361
same,Span (best-fit),W269A-2,149.9
same,Top (best-fit),W269A-2,101.3
same,EC50,"W269A-2, read-out: EC50 (best-fit)",0.435 nM
same,Bottom (best-fit),W269A-3,12.63
same,LogEC50 (best-fit),W269A-3,-8.938
same,Span (best-fit),W269A-3,80.26
same,Top (best-fit),W269A-3,92.88
same,EC50,"W269A-3, read-out: EC50 (best-fit)",1.15 nM
same,Best-fit Bottom,Y302A-1,-1.091
same,Best-fit Span,Y302A-1,74.2
same,Best-fit Top,Y302A-1,73.11
same,LogEC50,Y302A-1,-6.976
same,EC50,"Y302A-1, read-out: EC50",106 nM
same,Best-fit Bottom,Y302A-2,-6.663
same,Best-fit Span,Y302A-2,106.6
same,Best-fit Top,Y302A-2,99.95
same,LogEC50,Y302A-2,-7.6
same,EC50,"Y302A-2, read-out: EC50",25.1 nM
same,Best-fit Bottom,Y302A-3,-0.9588
same,Best-fit Span,Y302A-3,65.18
same,Best-fit Top,Y302A-3,64.22
same,LogEC50,Y302A-3,-6.976
same,cAMP inhibition potency of mutants,"alanine replacement of F208, F272, Y302, Q126, D122 in SSTR2",significantly decreased the cAMP inhibition potency
same,Bottom (best-fit value),[1],3.745
same,LogEC50 (best-fit value),[1],-9.177
same,Span (best-fit value),[1],105.4
same,Top (best-fit value),[1],109.1
same,EC50,"cAMP inhibition, SSTR2 F127A-1 (run 1), read-out: EC50 (best-fit value)",0.665 nM
same,Bottom (best-fit value),[2],6.147
same,LogEC50 (best-fit value),[2],-8.668
same,Span (best-fit value),[2],104
same,Top (best-fit value),[2],110.1
same,EC50,"cAMP inhibition, SSTR2 F127A-2 (run 2), read-out: EC50 (best-fit value)",2.15 nM
same,Bottom (best-fit value),[3],2.844
same,LogEC50 (best-fit value),[3],-8.526
same,Span (best-fit value),[3],104.1
same,Top (best-fit value),[3],107
same,EC50,"cAMP inhibition, SSTR2 F127A-3 (run 3), read-out: EC50 (best-fit value)",2.98 nM
same,Bottom (best-fit value),[4],10.39
same,LogEC50 (best-fit value),[4],-7.519
same,Top (best-fit value),[4],89.25
same,EC50,"cAMP inhibition, SSTR2 F208A-1 (run 1), read-out: EC50 (best-fit value)",30.3 nM
same,Bottom (best-fit value),[5],-4.181
same,LogEC50 (best-fit value),[5],-7.462
same,Top (best-fit value),[5],54.09
same,EC50,"cAMP inhibition, SSTR2 F208A-2 (run 2), read-out: EC50 (best-fit value)",34.6 nM
same,Bottom (best-fit value),[6],13.21
same,LogEC50 (best-fit value),[6],-7.519
same,Top (best-fit value),[6],113.5
same,Bottom (best-fit value),[7],14.54
same,LogEC50 (best-fit value),[7],-8.728
same,Span (best-fit value),[7],76.49
same,Top (best-fit value),[7],91.02
same,EC50,"cAMP inhibition, SSTR2 I130A-1 (run 1), read-out: EC50 (best-fit value)",1.87 nM
same,Bottom (best-fit value),[8],3.27
same,LogEC50 (best-fit value),[8],-7.739
same,Span (best-fit value),[8],103.8
same,Top (best-fit value),[8],107
same,EC50,"cAMP inhibition, SSTR2 I130A-2 (run 2), read-out: EC50 (best-fit value)",18.2 nM
same,Bottom (best-fit value),[9],1.85
same,LogEC50 (best-fit value),[9],-7.833
same,Span (best-fit value),[9],103.6
same,Top (best-fit value),[9],105.4
same,EC50,"cAMP inhibition, SSTR2 I130A-3 (run 3), read-out: EC50 (best-fit value)",14.7 nM
same,Bottom (best-fit value),[10],-15.61
same,LogEC50 (best-fit value),[10],-10.22
same,Span (best-fit value),[10],114
same,Top (best-fit value),[10],98.43
same,EC50,"cAMP inhibition, SSTR2 Y205A-1 (run 1), read-out: EC50 (best-fit value)",0.0606 nM
same,Bottom (best-fit value),[11],-21.77
same,LogEC50 (best-fit value),[11],-10.31
same,Span (best-fit value),[11],99.08
same,Top (best-fit value),[11],77.31
same,EC50,"cAMP inhibition, SSTR2 Y205A-2 (run 2), read-out: EC50 (best-fit value)",0.0488 nM
same,Bottom (best-fit value),[12],1.644
same,LogEC50 (best-fit value),[12],-9.761
same,Span (best-fit value),[12],161.4
same,Top (best-fit value),[12],163
same,EC50,"cAMP inhibition, SSTR2 Y205A-3 (run 3), read-out: EC50 (best-fit value)",0.173 nM
same,LogEC50 (best-fit),[13],-7.55
same,Top (best-fit),[13],86.06
same,EC50,"cAMP inhibition, SSTR2 T194H, run 1, read-out: EC50 (best-fit)",28.2 nM
same,LogEC50 (best-fit),[14],-7.55
same,Top (best-fit),[14],86.06
same,EC50,"cAMP inhibition, SSTR2 T194H, run 2, read-out: EC50 (best-fit)",28.2 nM
same,LogEC50 (best-fit),[15],-7.274
same,Top (best-fit),[15],99.32
same,EC50,"cAMP inhibition, SSTR2 T194H, run 3, read-out: EC50 (best-fit)",53.2 nM
same,LogEC50 (best-fit),[16],-7.828
same,Top (best-fit),[16],111.2
same,EC50,"cAMP inhibition, SSTR2 T194H, run 4, read-out: EC50 (best-fit)",14.9 nM
same,LogEC50 (best-fit),[17],-9.644
same,Top (best-fit),[17],94
same,EC50,"cAMP inhibition, SSTR2 V103N, run 1, read-out: EC50 (best-fit)",0.227 nM
same,LogEC50 (best-fit),[18],-9.644
same,Top (best-fit),[18],94
same,EC50,"cAMP inhibition, SSTR2 V103N, run 2, read-out: EC50 (best-fit)",0.227 nM
same,LogEC50 (best-fit),[19],-9.75
same,Top (best-fit),[19],93.06
same,EC50,"cAMP inhibition, SSTR2 V103N, run 3, read-out: EC50 (best-fit)",0.178 nM
same,LogEC50 (best-fit),[20],-9.608
same,Top (best-fit),[20],108.8
same,EC50,"cAMP inhibition, SSTR2 V103N, run 4, read-out: EC50 (best-fit)",0.247 nM
